Values belong to the compound of their own block, whether it stands above or below them.
Key:
[1] = Ratio of drug uptake in tumor to brain of mouse S180 cells xenografted Kunming mouse at 10 to 20 uCi, iv after 30 mins by gamma counting; assay type: ADME, organism-based, CCRF S-180; conditions: in vivo, 0.5 h
Muscle tissue [2] = test: Biodistribution in mouse S180 cells xenografted Kunming mouse muscle at 10 to 20 uCi, iv after 60 mins by gamma counting; assay type: ADME, organism-based, CCRF S-180; conditions: in vivo, 1 h
Blood [3] = test: Biodistribution in mouse S180 cells xenografted Kunming mouse blood at 10 to 20 uCi, iv after 30 mins by gamma counting; assay type: ADME, organism-based, CCRF S-180; conditions: in vivo, 0.5 h
Kidney [4] = test: Biodistribution in mouse S180 cells xenografted Kunming mouse kidney at 10 to 20 uCi, iv after 15 mins by gamma counting; assay type: ADME, organism-based, CCRF S-180; conditions: in vivo, 0.25 h
Blood [5] = test: Biodistribution in mouse S180 cells xenografted Kunming mouse blood at 10 to 20 uCi, iv after 15 mins by gamma counting; assay type: ADME, organism-based, CCRF S-180; conditions: in vivo, 0.25 h
[6] = Ratio of drug uptake in tumor to brain of mouse S180 cells xenografted Kunming mouse at 10 to 20 uCi, iv after 15 mins by gamma counting; assay type: ADME, organism-based, CCRF S-180; conditions: in vivo, 0.25 h
Blood [7] = test: Biodistribution in mouse S180 cells xenografted Kunming mouse blood at 10 to 20 uCi, iv after 120 mins by gamma counting; assay type: ADME, organism-based, CCRF S-180; conditions: in vivo, 2 h
[8] = Ratio of drug uptake in tumor to blood of mouse S180 cells xenografted Kunming mouse at 10 to 20 uCi, iv after 15 mins by gamma counting; assay type: ADME, organism-based, CCRF S-180; conditions: tumour, 0.25 h
Pancreas [9] = test: Biodistribution in mouse S180 cells xenografted Kunming mouse pancreas at 10 to 20 uCi, iv after 60 mins by gamma counting; assay type: ADME, organism-based, CCRF S-180; conditions: in vivo, 1 h
Lung [10] = test: Biodistribution in mouse S180 cells xenografted Kunming mouse lung at 10 to 20 uCi, iv after 15 mins by gamma counting; assay type: ADME, organism-based, CCRF S-180; conditions: in vivo, 0.25 h
[11] = Biodistribution in mouse S180 cells xenografted Kunming mouse tumor at 10 to 20 uCi, iv after 30 mins by gamma counting; assay type: ADME, organism-based, Neoplasm, CCRF S-180; conditions: in vivo, 0.5 h
[12] = Biodistribution in mouse S180 cells xenografted Kunming mouse tumor at 10 to 20 uCi, iv after 120 mins by gamma counting; assay type: ADME, organism-based, Neoplasm, CCRF S-180; conditions: in vivo, 2 h
Muscle tissue [13] = test: Biodistribution in mouse S180 cells xenografted Kunming mouse muscle at 10 to 20 uCi, iv after 30 mins by gamma counting; assay type: ADME, organism-based, CCRF S-180; conditions: in vivo, 0.5 h
Brain [14] = test: Biodistribution in mouse S180 cells xenografted Kunming mouse brain at 10 to 20 uCi, iv after 5 mins by gamma counting; assay type: ADME, organism-based, CCRF S-180; conditions: in vivo
Brain [15] = test: Biodistribution in mouse S180 cells xenografted Kunming mouse brain at 10 to 20 uCi, iv after 30 mins by gamma counting; assay type: ADME, organism-based, CCRF S-180; conditions: in vivo, 0.5 h
Kidney [16] = test: Biodistribution in mouse S180 cells xenografted Kunming mouse kidney at 10 to 20 uCi, iv after 5 mins by gamma counting; assay type: ADME, organism-based, CCRF S-180; conditions: in vivo
Lung [17] = test: Biodistribution in mouse S180 cells xenografted Kunming mouse lung at 10 to 20 uCi, iv after 30 mins by gamma counting; assay type: ADME, organism-based, CCRF S-180; conditions: in vivo, 0.5 h
Liver [18] = test: Biodistribution in mouse S180 cells xenografted Kunming mouse liver at 10 to 20 uCi, iv after 5 mins by gamma counting; assay type: ADME, organism-based, CCRF S-180; conditions: in vivo
[19] = Biodistribution in mouse S180 cells xenografted Kunming mouse tumor at 10 to 20 uCi, iv after 15 mins by gamma counting; assay type: ADME, organism-based, Neoplasm, CCRF S-180; conditions: in vivo, 0.25 h
Brain [20] = test: Biodistribution in mouse S180 cells xenografted Kunming mouse brain at 10 to 20 uCi, iv after 15 mins by gamma counting; assay type: ADME, organism-based, CCRF S-180; conditions: in vivo, 0.25 h
Heart = test: Biodistribution in mouse S180 cells xenografted Kunming mouse heart at 10 to 20 uCi, iv after 30 mins by gamma counting; assay type: ADME, organism-based, CCRF S-180; conditions: in vivo, 0.5 h
Pancreas [21] = test: Biodistribution in mouse S180 cells xenografted Kunming mouse pancreas at 10 to 20 uCi, iv after 30 mins by gamma counting; assay type: ADME, organism-based, CCRF S-180; conditions: in vivo, 0.5 h
[22] = Biodistribution in mouse S180 cells xenografted Kunming mouse tumor at 10 to 20 uCi, iv after 60 mins by gamma counting; assay type: ADME, organism-based, Neoplasm, CCRF S-180; conditions: in vivo, 1 h
[23] = Ratio of drug uptake in tumor to muscle of mouse S180 cells xenografted Kunming mouse at 10 to 20 uCi, iv after 60 mins by gamma counting; assay type: ADME, organism-based, CCRF S-180; conditions: in vivo, 1 h
[24] = Ratio of drug uptake in tumor to muscle of mouse S180 cells xenografted Kunming mouse at 10 to 20 uCi, iv after 120 mins by gamma counting; assay type: ADME, organism-based, CCRF S-180; conditions: in vivo, 2 h
[25] = Ratio of drug uptake in tumor to muscle of mouse S180 cells xenografted Kunming mouse at 10 to 20 uCi, iv after 15 mins by gamma counting; assay type: ADME, organism-based, CCRF S-180; conditions: in vivo, 0.25 h
[26] = Ratio of drug uptake in tumor to muscle of mouse S180 cells xenografted Kunming mouse at 10 to 20 uCi, iv after 30 mins by gamma counting; assay type: ADME, organism-based, CCRF S-180; conditions: in vivo, 0.5 h
[27] = Ratio of drug uptake in tumor to brain of mouse S180 cells xenografted Kunming mouse at 10 to 20 uCi, iv after 120 mins by gamma counting; assay type: ADME, organism-based, CCRF S-180; conditions: in vivo, 2 h
Muscle tissue [28] = test: Biodistribution in mouse S180 cells xenografted Kunming mouse muscle at 10 to 20 uCi, iv after 5 mins by gamma counting; assay type: ADME, organism-based, CCRF S-180; conditions: in vivo
Blood [29] = test: Biodistribution in mouse S180 cells xenografted Kunming mouse blood at 10 to 20 uCi, iv after 60 mins by gamma counting; assay type: ADME, organism-based, CCRF S-180; conditions: in vivo, 1 h
Pancreas [30] = test: Biodistribution in mouse S180 cells xenografted Kunming mouse pancreas at 10 to 20 uCi, iv after 5 mins by gamma counting; assay type: ADME, organism-based, CCRF S-180; conditions: in vivo
Muscle tissue [31] = test: Biodistribution in mouse S180 cells xenografted Kunming mouse muscle at 10 to 20 uCi, iv after 120 mins by gamma counting; assay type: ADME, organism-based, CCRF S-180; conditions: in vivo, 2 h
[32] = Ratio of drug uptake in tumor to blood of mouse S180 cells xenografted Kunming mouse at 10 to 20 uCi, iv after 60 mins by gamma counting; assay type: ADME, organism-based, CCRF S-180; conditions: tumour, 1 h
Pancreas [33] = test: Biodistribution in mouse S180 cells xenografted Kunming mouse pancreas at 10 to 20 uCi, iv after 120 mins by gamma counting; assay type: ADME, organism-based, CCRF S-180; conditions: in vivo, 2 h
[34] = Ratio of drug uptake in tumor to blood of mouse S180 cells xenografted Kunming mouse at 10 to 20 uCi, iv after 5 mins by gamma counting; assay type: ADME, organism-based, CCRF S-180; conditions: tumour
Lung [35] = test: Biodistribution in mouse S180 cells xenografted Kunming mouse lung at 10 to 20 uCi, iv after 60 mins by gamma counting; assay type: ADME, organism-based, CCRF S-180; conditions: in vivo, 1 h
Brain [36] = test: Biodistribution in mouse S180 cells xenografted Kunming mouse brain at 10 to 20 uCi, iv after 120 mins by gamma counting; assay type: ADME, organism-based, CCRF S-180; conditions: in vivo, 2 h
Liver [37] = test: Biodistribution in mouse S180 cells xenografted Kunming mouse liver at 10 to 20 uCi, iv after 15 mins by gamma counting; assay type: ADME, organism-based, CCRF S-180; conditions: in vivo, 0.25 h
Blood [38] = test: Biodistribution in mouse S180 cells xenografted Kunming mouse blood at 10 to 20 uCi, iv after 5 mins by gamma counting; assay type: ADME, organism-based, CCRF S-180; conditions: in vivo
Pancreas [39] = test: Biodistribution in mouse S180 cells xenografted Kunming mouse pancreas at 10 to 20 uCi, iv after 15 mins by gamma counting; assay type: ADME, organism-based, CCRF S-180; conditions: in vivo, 0.25 h
[40] = Ratio of drug uptake in tumor to blood of mouse S180 cells xenografted Kunming mouse at 10 to 20 uCi, iv after 120 mins by gamma counting; assay type: ADME, organism-based, CCRF S-180; conditions: tumour, 2 h
Lung [41] = test: Biodistribution in mouse S180 cells xenografted Kunming mouse lung at 10 to 20 uCi, iv after 120 mins by gamma counting; assay type: ADME, organism-based, CCRF S-180; conditions: in vivo, 2 h
Brain [42] = test: Biodistribution in mouse S180 cells xenografted Kunming mouse brain at 10 to 20 uCi, iv after 60 mins by gamma counting; assay type: ADME, organism-based, CCRF S-180; conditions: in vivo, 1 h

- Ratio [1]: 4.81
- Drug uptake (Muscle tissue [2]): 0.62 % ID/g
- Drug uptake (Blood [3]): 1.36 % ID/g
- Drug uptake (Kidney [4]): 13.79 % ID/g
- Drug uptake (Blood [5]): 2.25 % ID/g
- Ratio [6]: 3.2
- Drug uptake (Blood [7]): 0.3 % ID/g
- Ratio [8]: 0.63
- Drug uptake (Pancreas [9]): 0.67 % ID/g
- Drug uptake (Lung [10]): 5.44 % ID/g
- Drug uptake [11]: 1.49 % ID/g
- Drug uptake [12]: 0.49 % ID/g
- Drug uptake (Muscle tissue [13]): 1.17 % ID/g
- Drug uptake (Brain [14]): 1.03 % ID/g
- Drug uptake (Brain [15]): 0.31 % ID/g
- Drug uptake (Kidney [16]): 35.9 % ID/g
- Drug uptake (Lung [17]): 3.49 % ID/g
- Drug uptake (Liver [18]): 4.13 % ID/g
- Drug uptake [19]: 1.41 % ID/g
- Drug uptake (Brain [20]): 0.44 % ID/g
- Drug uptake (Heart): 1.76 % ID/g
- Drug uptake (Pancreas [21]): 1.03 % ID/g
- Drug uptake [22]: 1.36 % ID/g
- Ratio [23]: 2.19
- Ratio [24]: 2.58
- Ratio [25]: 1.16
- Ratio [26]: 1.27
- Ratio [27]: 9.8
- Drug uptake (Muscle tissue [28]): 1.78 % ID/g
- Drug uptake (Blood [29]): 0.95 % ID/g
- Drug uptake (Pancreas [30]): 2.33 % ID/g
- Drug uptake (Muscle tissue [31]): 0.19 % ID/g
- Ratio [32]: 1.43
- Drug uptake (Pancreas [33]): 0.2 % ID/g
- Ratio [34]: 0.72
- Drug uptake (Lung [35]): 2.35 % ID/g
- Drug uptake (Brain [36]): 0.05 % ID/g
- Drug uptake (Liver [37]): 4.02 % ID/g
- Drug uptake (Blood [38]): 3.17 % ID/g
- Drug uptake (Pancreas [39]): 1 % ID/g
- Ratio [40]: 1.63
- Drug uptake (Lung [41]): 0.66 % ID/g
- Drug uptake (Brain [42]): 0.19 % ID/g
SMILES: CCCc1nc2c(C)cc(C(=O)O)cc2n1CC[18F]

- Ratio [1]: 2.54
- Drug uptake (Muscle tissue [2]): 2.37 % ID/g
- Drug uptake (Blood [3]): 3.23 % ID/g
- Drug uptake (Kidney [4]): 6.79 % ID/g
- Drug uptake (Blood [5]): 3.3 % ID/g
- Ratio [6]: 2.43
- Drug uptake (Blood [7]): 1.12 % ID/g
- Ratio [8]: 0.76
- Drug uptake (Pancreas [9]): 0.03 % ID/g
- Drug uptake (Lung [10]): 9.82 % ID/g
- Drug uptake [11]: 3.28 % ID/g
- Drug uptake [12]: 2.15 % ID/g
- Drug uptake (Muscle tissue [13]): 2.69 % ID/g
- Drug uptake (Brain [14]): 0.99 % ID/g
- Drug uptake (Brain [15]): 1.29 % ID/g
- Drug uptake (Kidney [16]): 6.58 % ID/g
- Drug uptake (Lung [17]): 8.57 % ID/g
- Drug uptake (Liver [18]): 7.67 % ID/g
- Drug uptake [19]: 2.5 % ID/g
- Drug uptake (Brain [20]): 1.03 % ID/g
- Drug uptake (Heart): 3.27 % ID/g
- Drug uptake (Pancreas [21]): 0.11 % ID/g
- Drug uptake [22]: 2.75 % ID/g
- Ratio [23]: 1.23
- Ratio [24]: 1.02
- Ratio [25]: 0.75
- Ratio [26]: 0.62
- Ratio [27]: 2.95
- Drug uptake (Muscle tissue [28]): 2.88 % ID/g
- Drug uptake (Blood [29]): 2.51 % ID/g
- Drug uptake (Pancreas [30]): 0.93 % ID/g
- Drug uptake (Muscle tissue [31]): 2.1 % ID/g
- Ratio [32]: 1.1
- Drug uptake (Pancreas [33]): 0.09 % ID/g
- Ratio [34]: 0.31
- Drug uptake (Lung [35]): 4.7 % ID/g
- Drug uptake (Brain [36]): 0.73 % ID/g
- Drug uptake (Liver [37]): 5.6 % ID/g
- Drug uptake (Blood [38]): 6.81 % ID/g
- Drug uptake (Pancreas [39]): 0.22 % ID/g
- Ratio [40]: 1.92
- Drug uptake (Lung [41]): 1.55 % ID/g
- Drug uptake (Brain [42]): 0.94 % ID/g
SMILES: N[C@@H](Cc1ccc(OCC[18F])cc1)C(=O)O [FLORETYROSINE F18]

Source: ChEMBL document CHEMBL1156163, “(18)F Labeled benzimidazole derivatives as potential radiotracer for positron emission tomography (PET) tumor imaging” (Bioorg Med Chem, 2010)
